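Five concentrations, 48 hours, 96-well plates. GI50 is the concentration that inhibits growth by half.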 The source made the active and inactive calls. No stated cut-off is given here; in the data, active = GI50 up to about 1.1 µM and inactive = higher.
Experiments:
Assay in all cases: growth of human tumour cells (NCI), 48 h
786-0 = tested on: 786-0
A498 = tested on: A498
A549 = tested on: A549
ACHN = tested on: ACHN
BT-549 = tested on: BT-549
CAKI-1 = tested on: CAKI-1
CCRF-CEM = tested on: CCRF-CEM
DU-145 = tested on: DU-145
EKVX = tested on: EKVX
HCC 2998 = tested on: HCC 2998
HCT-116 = tested on: HCT-116
HCT-15 = tested on: HCT-15
HL-60 = tested on: HL-60
HOP-62 = tested on: HOP-62
HOP-92 = tested on: HOP-92
HT-29 = tested on: HT-29
Hs-578T = tested on: Hs-578T
IGROV-1 = tested on: IGROV-1
K562 = tested on: K562
KM12 = tested on: KM12
LOX IMVI = tested on: LOX IMVI
M14 = tested on: M14
MCF7 = tested on: MCF7
MDA-MB-231 = tested on: MDA-MB-231
MDA-MB-435 = tested on: MDA-MB-435
MDA-N = tested on: MDA-N
MOLT-4 = tested on: MOLT-4
Malme-3M = tested on: Malme-3M
NCI-H226 = tested on: NCI-H226
NCI-H23 = tested on: NCI-H23
NCI-H460 = tested on: NCI-H460
NCI/ADR-RES = tested on: NCI/ADR-RES
OVCAR-3 = tested on: OVCAR-3
OVCAR-4 = tested on: OVCAR-4
OVCAR-5 = tested on: OVCAR-5
OVCAR-8 = tested on: OVCAR-8
PC-3 = tested on: PC-3
RPMI-8226 = tested on: RPMI-8226
SF-295 = tested on: SF-295
SK-MEL-28 = tested on: SK-MEL-28
SK-MEL-2 = tested on: SK-MEL-2
SK-MEL-5 = tested on: SK-MEL-5
SK-OV-3 = tested on: SK-OV-3
SN12C = tested on: SN12C
SNB-19 = tested on: SNB-19
SR = tested on: SR
SW-620 = tested on: SW-620
T47D = tested on: T47D
TK-10 = tested on: TK-10
U-251 = tested on: U-251
UACC-257 = tested on: UACC-257
UACC-62 = tested on: UACC-62
UO-31 = tested on: UO-31
COLO 205 = tested on: COLO 205
NCI-H522 = tested on: NCI-H522
RXF 393 = tested on: RXF 393
SF-268 = tested on: SF-268
SNB-75 = tested on: SNB-75
SF-539 = tested on: SF-539

For O=C(OCC1OC2OC(c3ccccc3)(n3ccc4c([N+](=O)[O-])ccnc43)OC2C1OC(=O)c1ccccc1)c1ccccc1 (stereo not given), the GI50 (786-0) was > 100 µM (inactive), the GI50 (A498) was > 100 µM (inactive) and the GI50 (A549) was > 100 µM (inactive). For the same molecule, the GI50 (ACHN) was > 100 µM (inactive), the GI50 (BT-549) was > 100 µM (inactive) and the GI50 (CAKI-1) was > 100 µM (inactive). The GI50 (CCRF-CEM) was > 100 µM (inactive), the GI50 (DU-145) was > 100 µM (inactive) and the GI50 (EKVX) was > 100 µM (inactive). For the same molecule, the GI50 (HCC 2998) was > 100 µM (inactive), the GI50 (HCT-116) was > 100 µM (inactive) and the GI50 (HCT-15) was greater than 100 µM. For the same molecule, the GI50 (HL-60) was > 100 µM (inactive), the GI50 (HOP-62) was > 100 µM (inactive) and the GI50 (HOP-92) was > 100 µM (inactive). For the same molecule, the GI50 (HT-29) was > 100 µM (inactive), the GI50 (Hs-578T) was 64.7 µM (inactive) and the GI50 (IGROV-1) was > 100 µM (inactive). The GI50 (K562) was > 100 µM (inactive), the GI50 (KM12) was > 100 µM (inactive) and the GI50 (LOX IMVI) was > 100 µM (inactive). For the same molecule, the GI50 (M14) was > 100 µM (inactive), the GI50 (MCF7) was > 100 µM (inactive) and the GI50 (MDA-MB-231) was > 100 µM (inactive). For the same molecule, the GI50 (MDA-MB-435) was > 100 µM (inactive), the GI50 (MDA-N) was > 100 µM (inactive) and the GI50 (MOLT-4) was > 100 µM (inactive). The GI50 (Malme-3M) was > 100 µM (inactive), the GI50 (NCI-H226) was > 100 µM (inactive) and the GI50 (NCI-H23) was > 100 µM (inactive). For the same molecule, the GI50 (NCI-H460) was > 100 µM (inactive), the GI50 (NCI/ADR-RES) was > 100 µM (inactive) and the GI50 (OVCAR-3) was > 100 µM (inactive). For the same molecule, the GI50 (OVCAR-4) was > 100 µM (inactive), the GI50 (OVCAR-5) was > 100 µM (inactive) and the GI50 (OVCAR-8) was > 100 µM (inactive). For the same molecule, the GI50 (PC-3) was > 100 µM (inactive), the GI50 (RPMI-8226) was > 100 µM (inactive) and the GI50 (SF-295) was > 100 µM (inactive). For the same molecule, the GI50 (SK-MEL-28) was > 100 µM (inactive), the GI50 (SK-MEL-2) was > 100 µM (inactive) and the GI50 (SK-MEL-5) was > 100 µM (inactive). The GI50 (SK-OV-3) was > 100 µM (inactive), the GI50 (SN12C) was > 100 µM (inactive) and the GI50 (SNB-19) was > 100 µM (inactive). For the same molecule, the GI50 (SR) was > 100 µM (inactive), the GI50 (SW-620) was > 100 µM (inactive) and the GI50 (T47D) was 35 µM (inactive). For the same molecule, the GI50 (TK-10) was > 100 µM (inactive), the GI50 (U-251) was > 100 µM (inactive) and the GI50 (UACC-257) was > 100 µM (inactive). The GI50 (UACC-62) was > 100 µM (inactive) and the GI50 (UO-31) was > 100 µM (inactive).

COc1cccc(CCn2c(N)c(C(=O)O)c3ccc([N+](=O)[O-])cc3c2=O)c1 was tested, and the GI50 (786-0) was 31.1 µM (inactive), the GI50 (A498) was 40.5 µM (inactive) and the GI50 (A549) was 27.8 µM (inactive). For the same molecule, the GI50 (ACHN) was 33.7 µM (inactive), the GI50 (BT-549) was 25.4 µM (inactive) and the GI50 (CAKI-1) was 43.5 µM (inactive). For the same molecule, the GI50 (CCRF-CEM) was > 100 µM (inactive), the GI50 (COLO 205) was 20.7 µM (inactive) and the GI50 (DU-145) was 40.2 µM (inactive). For the same molecule, the GI50 (EKVX) was 51.5 µM (inactive), the GI50 (HCC 2998) was 53.2 µM (inactive) and the GI50 (HCT-116) was 25.1 µM (inactive). The GI50 (HCT-15) was 31.8 µM, the GI50 (HL-60) was > 100 µM (inactive) and the GI50 (HOP-62) was 37.2 µM (inactive). The GI50 (HT-29) was 38.5 µM (inactive), the GI50 (Hs-578T) was 33.2 µM (inactive) and the GI50 (IGROV-1) was 36.7 µM (inactive). For the same molecule, the GI50 (K562) was 67.8 µM (inactive), the GI50 (LOX IMVI) was 35.2 µM (inactive) and the GI50 (M14) was 45.3 µM (inactive). For the same molecule, the GI50 (MCF7) was 20.1 µM (inactive), the GI50 (MDA-MB-231) was 16.9 µM (inactive) and the GI50 (MDA-MB-435) was 38.3 µM (inactive). For the same molecule, the GI50 (MDA-N) was 30.3 µM (inactive), the GI50 (MOLT-4) was 54.1 µM (inactive) and the GI50 (Malme-3M) was 37.3 µM (inactive). The GI50 (NCI-H226) was 44 µM (inactive), the GI50 (NCI-H23) was 19.5 µM (inactive) and the GI50 (NCI-H460) was 32.8 µM (inactive). The GI50 (NCI-H522) was 28.3 µM (inactive), the GI50 (NCI/ADR-RES) was 28.9 µM (inactive) and the GI50 (OVCAR-3) was 29.4 µM (inactive). For the same molecule, the GI50 (OVCAR-4) was 54 µM (inactive), the GI50 (OVCAR-5) was 52.2 µM (inactive) and the GI50 (OVCAR-8) was 36.6 µM (inactive). For the same molecule, the GI50 (PC-3) was 29.2 µM (inactive), the GI50 (RPMI-8226) was 22.9 µM (inactive) and the GI50 (RXF 393) was 28.7 µM (inactive). For the same molecule, the GI50 (SF-268) was 37.7 µM (inactive), the GI50 (SF-295) was 38.1 µM (inactive) and the GI50 (SK-MEL-28) was > 100 µM (inactive). For the same molecule, the GI50 (SK-MEL-2) was 22.6 µM (inactive), the GI50 (SK-MEL-5) was 24 µM (inactive) and the GI50 (SK-OV-3) was 35.6 µM (inactive). The GI50 (SN12C) was 21.8 µM (inactive), the GI50 (SNB-19) was 39.1 µM (inactive) and the GI50 (SNB-75) was 24.9 µM (inactive). The GI50 (SR) was 40.1 µM (inactive), the GI50 (SW-620) was > 100 µM (inactive) and the GI50 (T47D) was 29.3 µM (inactive). For the same molecule, the GI50 (U-251) was 25.9 µM (inactive), the GI50 (UACC-62) was 52.4 µM (inactive) and the GI50 (UO-31) was 31.2 µM (inactive).

COc1cc(/C=C2\N=C(c3ccccc3)N(/N=C3\C(=O)Nc4ccccc43)C2=O)cc(OC)c1OC was tested, and the GI50 (786-0) was > 100 µM (inactive), the GI50 (A498) was > 100 µM (inactive) and the GI50 (A549) was > 100 µM (inactive). For the same molecule, the GI50 (ACHN) was > 100 µM (inactive), the GI50 (BT-549) was > 100 µM (inactive) and the GI50 (CAKI-1) was > 100 µM (inactive). The GI50 (CCRF-CEM) was 37.1 µM (inactive), the GI50 (COLO 205) was 57.4 µM (inactive) and the GI50 (DU-145) was > 100 µM (inactive). The GI50 (EKVX) was 46.2 µM (inactive), the GI50 (HCC 2998) was > 100 µM (inactive) and the GI50 (HCT-116) was > 100 µM (inactive). For the same molecule, the GI50 (HCT-15) was greater than 100 µM, the GI50 (HL-60) was 94.4 µM (inactive) and the GI50 (HOP-62) was > 100 µM (inactive). For the same molecule, the GI50 (HOP-92) was 40.3 µM (inactive), the GI50 (HT-29) was > 100 µM (inactive) and the GI50 (Hs-578T) was 54 µM (inactive). The GI50 (IGROV-1) was > 100 µM (inactive), the GI50 (K562) was > 100 µM (inactive) and the GI50 (KM12) was > 100 µM (inactive). For the same molecule, the GI50 (LOX IMVI) was 90.8 µM (inactive), the GI50 (M14) was > 100 µM (inactive) and the GI50 (MCF7) was > 100 µM (inactive). For the same molecule, the GI50 (MDA-MB-231) was > 100 µM (inactive), the GI50 (MDA-MB-435) was 39.1 µM (inactive) and the GI50 (MDA-N) was 42.3 µM (inactive). For the same molecule, the GI50 (MOLT-4) was 25.4 µM (inactive), the GI50 (Malme-3M) was 58.5 µM (inactive) and the GI50 (NCI-H226) was 41.7 µM (inactive). The GI50 (NCI-H23) was 86.1 µM (inactive), the GI50 (NCI-H460) was > 100 µM (inactive) and the GI50 (NCI-H522) was 27.8 µM (inactive). The GI50 (NCI/ADR-RES) was > 100 µM (inactive), the GI50 (OVCAR-3) was 24.9 µM (inactive) and the GI50 (OVCAR-4) was 61.9 µM (inactive). The GI50 (OVCAR-5) was > 100 µM (inactive), the GI50 (OVCAR-8) was 94.2 µM (inactive) and the GI50 (PC-3) was > 100 µM (inactive). For the same molecule, the GI50 (RXF 393) was > 100 µM (inactive), the GI50 (SF-268) was 66.4 µM (inactive) and the GI50 (SF-295) was > 100 µM (inactive). The GI50 (SF-539) was > 100 µM (inactive), the GI50 (SK-MEL-28) was > 100 µM (inactive) and the GI50 (SK-MEL-2) was > 100 µM (inactive). The GI50 (SK-MEL-5) was > 100 µM (inactive), the GI50 (SK-OV-3) was > 100 µM (inactive) and the GI50 (SN12C) was > 100 µM (inactive). The GI50 (SNB-19) was > 100 µM (inactive), the GI50 (SNB-75) was > 100 µM (inactive) and the GI50 (SR) was 38.6 µM (inactive). The GI50 (SW-620) was > 100 µM (inactive), the GI50 (T47D) was > 100 µM (inactive) and the GI50 (TK-10) was > 100 µM (inactive). The GI50 (U-251) was > 100 µM (inactive), the GI50 (UACC-257) was > 100 µM (inactive) and the GI50 (UACC-62) was > 100 µM (inactive). The GI50 (UO-31) was > 100 µM (inactive).

Reference: ChEMBL document CHEMBL1201862, “PubChem BioAssay data set” (2004)
